Measurements: ChEMBL document CHEMBL5465560, “Selectivity Literature for EUbOPEN Chemogenomic Library” (2024)

Tests used:
[1] = biological target: Ribosomal protein S6 kinase alpha-5 (Homo sapiens) (UniProt O75582); test: Selectivity interaction (KinomeScan (DiscoverX)) EUB0000666a RPS6KA5; settings: at 10 µM
[2] = biological target: T1, Activin receptor type-1B (Homo sapiens) (UniProt P36896); test: Selectivity interaction (SelectScreen profiling (Invitrogen)) EUB0000607a ACVR1B; settings: at 2 µM
T1 sequence (whole entry): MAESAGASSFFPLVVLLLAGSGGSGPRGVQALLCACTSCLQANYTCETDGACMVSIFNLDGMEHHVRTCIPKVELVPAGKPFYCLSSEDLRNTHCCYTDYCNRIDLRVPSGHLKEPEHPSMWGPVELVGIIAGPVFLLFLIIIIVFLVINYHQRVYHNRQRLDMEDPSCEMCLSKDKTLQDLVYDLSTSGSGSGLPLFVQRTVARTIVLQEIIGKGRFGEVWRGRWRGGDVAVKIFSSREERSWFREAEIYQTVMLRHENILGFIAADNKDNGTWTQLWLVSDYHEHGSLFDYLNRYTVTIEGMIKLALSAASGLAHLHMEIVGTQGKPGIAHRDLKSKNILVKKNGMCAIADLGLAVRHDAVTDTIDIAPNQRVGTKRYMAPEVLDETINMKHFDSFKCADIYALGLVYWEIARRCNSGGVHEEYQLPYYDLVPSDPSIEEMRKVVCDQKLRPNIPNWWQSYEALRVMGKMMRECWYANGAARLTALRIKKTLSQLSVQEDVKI

[3] = biological target: T2, Serine/threonine-protein kinase 3 (Homo sapiens) (UniProt Q13188); test: Selectivity interaction (ActivX KiNativ screen (kinase selectivity in THP-1 cell lysates)) EUB0000639a STK3; format: subcellular; settings: lysate, at 0.04 µM
T2 sequence (whole entry): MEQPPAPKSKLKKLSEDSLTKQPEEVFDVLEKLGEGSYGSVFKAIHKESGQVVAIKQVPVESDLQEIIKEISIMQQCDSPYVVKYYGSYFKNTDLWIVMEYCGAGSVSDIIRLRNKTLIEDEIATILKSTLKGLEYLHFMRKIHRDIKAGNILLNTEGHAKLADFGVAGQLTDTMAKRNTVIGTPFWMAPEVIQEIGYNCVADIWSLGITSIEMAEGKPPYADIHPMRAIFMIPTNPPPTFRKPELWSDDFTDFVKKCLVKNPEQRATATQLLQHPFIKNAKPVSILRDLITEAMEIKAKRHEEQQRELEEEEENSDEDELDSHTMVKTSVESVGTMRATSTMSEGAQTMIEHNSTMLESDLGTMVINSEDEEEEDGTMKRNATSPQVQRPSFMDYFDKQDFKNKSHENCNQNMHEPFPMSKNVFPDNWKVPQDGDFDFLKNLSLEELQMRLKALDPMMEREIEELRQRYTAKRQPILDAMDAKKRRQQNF

[4] = biological target: T3, Serine/threonine-protein kinase Nek9 (Homo sapiens) (UniProt Q8TD19); test: Selectivity interaction (Kinase panel (Invitrogen)) EUB0000639a NEK9; settings: at 200 nM
T3 sequence (whole entry): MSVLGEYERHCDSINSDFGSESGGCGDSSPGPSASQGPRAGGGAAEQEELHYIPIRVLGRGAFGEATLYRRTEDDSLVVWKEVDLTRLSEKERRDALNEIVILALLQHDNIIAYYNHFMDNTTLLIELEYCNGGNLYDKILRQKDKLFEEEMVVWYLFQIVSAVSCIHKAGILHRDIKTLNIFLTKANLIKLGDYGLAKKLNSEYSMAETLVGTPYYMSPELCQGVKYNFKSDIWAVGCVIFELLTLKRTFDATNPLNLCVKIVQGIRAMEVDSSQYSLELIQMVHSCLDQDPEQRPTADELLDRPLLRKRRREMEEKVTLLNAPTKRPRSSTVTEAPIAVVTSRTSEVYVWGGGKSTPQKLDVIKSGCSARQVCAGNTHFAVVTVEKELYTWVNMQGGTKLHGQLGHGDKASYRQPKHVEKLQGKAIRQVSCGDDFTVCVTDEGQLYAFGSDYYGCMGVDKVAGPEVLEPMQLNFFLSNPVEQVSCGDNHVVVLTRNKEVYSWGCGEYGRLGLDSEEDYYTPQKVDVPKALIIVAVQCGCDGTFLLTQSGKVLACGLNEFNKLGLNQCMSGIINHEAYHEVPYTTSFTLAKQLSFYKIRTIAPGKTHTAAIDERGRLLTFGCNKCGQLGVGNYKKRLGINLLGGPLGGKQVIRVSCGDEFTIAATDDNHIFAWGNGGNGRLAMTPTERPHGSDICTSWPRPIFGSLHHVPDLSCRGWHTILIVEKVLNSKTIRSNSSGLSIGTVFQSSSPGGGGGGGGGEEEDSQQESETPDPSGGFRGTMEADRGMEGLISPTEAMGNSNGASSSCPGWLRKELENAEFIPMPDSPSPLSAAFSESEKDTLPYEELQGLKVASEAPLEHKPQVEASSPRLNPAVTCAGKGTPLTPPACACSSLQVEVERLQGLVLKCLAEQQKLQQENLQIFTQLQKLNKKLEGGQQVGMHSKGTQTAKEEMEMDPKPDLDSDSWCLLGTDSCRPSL

[5] = biological target: Tyrosine-protein kinase JAK1 (Homo sapiens, UniProt P23458); test: Selectivity interaction (KinomeScan (DiscoverX)) EUB0000229b JAK1; settings: at 10 µM
Tyrosine-protein kinase JAK1, sequence (P23458 whole entry): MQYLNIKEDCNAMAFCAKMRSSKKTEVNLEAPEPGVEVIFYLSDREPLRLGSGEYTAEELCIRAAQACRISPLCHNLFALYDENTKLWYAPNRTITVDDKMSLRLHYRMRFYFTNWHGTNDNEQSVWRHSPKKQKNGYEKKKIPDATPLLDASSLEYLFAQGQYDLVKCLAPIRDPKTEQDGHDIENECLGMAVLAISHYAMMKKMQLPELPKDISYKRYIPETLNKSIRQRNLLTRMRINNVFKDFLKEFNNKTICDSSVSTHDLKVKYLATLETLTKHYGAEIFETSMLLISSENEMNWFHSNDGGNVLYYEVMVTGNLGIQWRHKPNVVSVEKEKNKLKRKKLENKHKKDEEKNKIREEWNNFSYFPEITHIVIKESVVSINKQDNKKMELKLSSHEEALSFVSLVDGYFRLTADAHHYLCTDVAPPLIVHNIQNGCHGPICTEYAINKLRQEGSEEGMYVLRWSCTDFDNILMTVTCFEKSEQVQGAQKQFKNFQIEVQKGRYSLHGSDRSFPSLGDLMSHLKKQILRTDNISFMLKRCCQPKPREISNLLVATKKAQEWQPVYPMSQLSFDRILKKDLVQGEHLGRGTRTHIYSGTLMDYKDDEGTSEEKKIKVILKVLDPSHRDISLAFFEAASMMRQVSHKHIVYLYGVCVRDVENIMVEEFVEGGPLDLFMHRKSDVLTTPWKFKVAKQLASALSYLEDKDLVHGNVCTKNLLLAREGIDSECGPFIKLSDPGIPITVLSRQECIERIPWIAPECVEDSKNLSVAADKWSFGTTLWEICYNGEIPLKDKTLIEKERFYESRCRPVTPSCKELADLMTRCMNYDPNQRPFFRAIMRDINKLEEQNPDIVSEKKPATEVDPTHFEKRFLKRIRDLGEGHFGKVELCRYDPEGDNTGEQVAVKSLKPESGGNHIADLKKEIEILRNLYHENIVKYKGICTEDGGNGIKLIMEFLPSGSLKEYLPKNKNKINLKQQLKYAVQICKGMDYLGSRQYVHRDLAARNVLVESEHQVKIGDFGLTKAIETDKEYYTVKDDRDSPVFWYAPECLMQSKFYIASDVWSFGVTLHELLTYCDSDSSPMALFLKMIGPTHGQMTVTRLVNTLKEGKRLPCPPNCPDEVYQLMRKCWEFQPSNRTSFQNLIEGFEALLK

[6] = biological target: T4, Serine/threonine-protein kinase Nek2 (Homo sapiens) (UniProt P51955); test: Selectivity interaction (KinomeScan (DiscoverX)) EUB0000618a NEK2; settings: at 10 µM
T4 sequence (whole entry): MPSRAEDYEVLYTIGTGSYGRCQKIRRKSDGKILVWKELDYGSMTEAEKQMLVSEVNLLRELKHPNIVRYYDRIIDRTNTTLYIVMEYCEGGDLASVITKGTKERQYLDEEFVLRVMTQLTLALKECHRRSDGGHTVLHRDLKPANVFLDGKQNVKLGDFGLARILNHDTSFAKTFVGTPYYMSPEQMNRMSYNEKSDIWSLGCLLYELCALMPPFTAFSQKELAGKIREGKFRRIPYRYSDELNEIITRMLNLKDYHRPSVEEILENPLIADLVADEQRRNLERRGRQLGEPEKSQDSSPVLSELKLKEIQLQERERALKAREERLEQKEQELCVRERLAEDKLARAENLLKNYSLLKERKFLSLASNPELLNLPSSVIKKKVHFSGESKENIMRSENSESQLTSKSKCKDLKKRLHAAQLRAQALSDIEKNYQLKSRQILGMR

Ribosomal protein S6 kinase alpha-5 (Homo sapiens), sequence (O75582 whole entry, looked up): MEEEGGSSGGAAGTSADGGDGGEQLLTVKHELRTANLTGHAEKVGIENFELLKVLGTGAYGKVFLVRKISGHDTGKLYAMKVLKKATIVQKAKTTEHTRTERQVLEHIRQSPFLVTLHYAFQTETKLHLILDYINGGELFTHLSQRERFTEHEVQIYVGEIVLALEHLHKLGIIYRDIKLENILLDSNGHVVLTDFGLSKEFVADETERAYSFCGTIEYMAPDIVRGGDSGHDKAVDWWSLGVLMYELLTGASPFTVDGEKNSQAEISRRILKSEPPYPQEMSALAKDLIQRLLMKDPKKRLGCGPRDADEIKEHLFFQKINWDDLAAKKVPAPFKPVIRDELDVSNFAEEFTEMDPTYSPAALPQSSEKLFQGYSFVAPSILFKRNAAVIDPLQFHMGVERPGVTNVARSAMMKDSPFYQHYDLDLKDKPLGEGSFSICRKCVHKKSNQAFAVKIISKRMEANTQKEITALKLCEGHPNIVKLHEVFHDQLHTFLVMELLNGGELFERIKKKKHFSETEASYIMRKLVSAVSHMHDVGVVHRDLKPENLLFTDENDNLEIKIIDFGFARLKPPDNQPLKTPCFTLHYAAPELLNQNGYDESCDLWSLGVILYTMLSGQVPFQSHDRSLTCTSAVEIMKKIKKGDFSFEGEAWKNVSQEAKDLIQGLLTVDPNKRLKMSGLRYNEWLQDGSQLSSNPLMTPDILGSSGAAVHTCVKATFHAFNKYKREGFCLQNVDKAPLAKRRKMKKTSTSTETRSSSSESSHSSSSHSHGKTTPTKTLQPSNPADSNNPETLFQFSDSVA

How did the % of control [1] turn out when `O=C(NOC[C@H](O)CO)c1ccc(F)c(F)c1Nc1ccc(I)cc1F` was run?
Its % of control is 87%.

For `CNC(=O)Nc1ccc(-c2nc(N3CC4CCC(C3)O4)c3cnn(C4CCC5(CC4)OCCO5)c3n2)cc1`, which % of inhibition [2] is on record?
Its % of inhibition is 3%.

For `CC[C@@H]1[C@H](F)C(=O)N[C@@H]1COc1nccc2cc(C(N)=O)c(OC)cc12` [ZIMLOVISERTIB], which % of inhibition [3] is on record?
The % of inhibition was 2.2%.

What about the % of inhibition [4] of the same compound?
Its % of inhibition is 2.82%.

`COc1cc(N(C)c2ccnc3ccc(C(F)(F)F)cc23)cc(OC)c1OC` was tested. Which % binding [5] did it give?
Its % binding is 70%.

With `O[C@H]1CC[C@H](Nc2ncc3nc(Nc4c(F)cc(F)cc4F)n([C@H]4CCOC4)c3n2)CC1` as the compound, how does the % of control [6] read?
The % of control was 100%.
